The text below walks through data of patent US20050181072A1, “Use of essential oils for combating gi tract infection by helicobacter-like organisms” (priority 2000, published 2005).

≈ marks a conversion by molar mass, not a printed value.

In the first assay the test system is H. pylori. Put plainly: Liquid medium assay, MBC determination (CFU count after subculture). The class given is cell-based. To be noted: Helicobacter pylori, pH 7.4, read-out: Liquid medium MBC. As for the experimental part: The parameters used to define the inhibitory capacity of a given substance are: 1) the minimal inhibitory concentration (MIC) which is the lowest concentration at which bacterial growth is prevented, and 2) the minimal […] concentration (MBC) which is the lowest concentration at which bacteria are killed (no growth in subculture). In the light of this: MIC≦MBC. ?
b) Liquid medium assay (used for MBC determination)
MBC determination in H. pylori was carried out by placing bacteria and different dilutions of EO at pH 7.4 together for 1 h or 24 h, plating (subculture in solid medium) for 3-5 days, and counting colony forming units (CFU). The results were then plotted as H. pylori (log10CFU/ml) vs concentration of EO (g/l). It is clear from the plots (shown in FIGS. 1 and 2) that EOs already display a marked effect on H. pylori viability after 1 h incubation and that the selected EOs are remarkably potent inhibitors of H. pylori in vitro.
One may read the MBC as the lowest tested concentration that kills the bacteria rather than only halting them. On to `Cc1ccc(C(C)C)cc1O` [Carvacrol], for which the minimal bactericidal concentration (MBC) was 40 µg/mL (≈ 266 µM).

As for `C=CCc1ccc(OC)cc1` [Estragole], the minimum bactericidal concentration (MBC) amounted to 100 µg/mL (≈ 675 µM).

The assay is the same for the next values; noted with them: Helicobacter pylori; pure compounds, Table 2; pH 7.4; read-out: Liquid medium MBC.
With `CC1=CCC2CC1C2(C)C` (stereo not drawn) [Alpha-pinene], the MBC is 100 µg/mL (≈ 734 µM).

Turning to `C=C1CCC2CC1C2(C)C` (stereo not drawn) [Beta-pinene], the MBC is 100 µg/mL (≈ 734 µM).

With `CC(C)=CCCC(C)=CC=O` [Citral], the minimum bactericidal concentration (MBC) came out at 40 µg/mL (≈ 263 µM).

For `CC(C)=CCCC(C)CC=O` (centres unmarked) [Citronellal], the minimal bactericidal concentration (MBC) was found to be 100 µg/mL (≈ 648 µM).

As for `C=CCc1ccc(O)c(OC)c1` [Eugenol], the minimum bactericidal concentration (MBC) was 100 µg/mL (≈ 609 µM).

In the case of `CC12CCC(CC1)C(C)(C)O2` [Eukalyptol], the MBC was over 100 µg/mL.

For the molecule `CC(C)=CCCC(C)=CCCC(C)=CCO` [Farnesol], the MBC is 40 µg/mL (≈ 180 µM).

With `CC(C)=CCC/C(C)=C/CO` [Geraniol], the MBC was determined as 100 µg/mL (≈ 648 µM).

As for `CC(=O)OC/C=C(\C)CCC=C(C)C` [Geranyl acetate], the minimal bactericidal concentration (MBC) was over 100 µg/mL.

As to `CC=Cc1ccc(O)c(OC)c1` [Isoeugenol], the minimum bactericidal concentration (MBC) turned out to be 40 µg/mL (≈ 244 µM).

Consider `C=CC(C)(O)CCC=C(C)C` (centres unmarked) [Linalool], for which the MBC turned out to be 100 µg/mL (≈ 648 µM).

Take `CC1CCC(C(C)C)C(O)C1` (centres unmarked) [Menthol]: the minimal bactericidal concentration (MBC) was over 100 µg/mL.

On to `CC(C)=CCC/C(C)=C\CO` [Nerol], for which the MBC was 40 µg/mL (≈ 259 µM).

Take `Cc1ccc(C(C)C)c(O)c1` [Thymol]: the minimum bactericidal concentration (MBC) stood at 100 µg/mL (≈ 666 µM).

As to `CCC/C=C/C=O` [Trans-2-hexenal], the minimum bactericidal concentration (MBC) was 40 µg/mL (≈ 408 µM).
